Experimental data: paper PMC8097893, “Investigating the effects of two novel 4-MMPB analogs as potent lipoxygenase inhibitors for prostate cancer treatment” (Journal of Biological Research, 2021)
Like-named read-outs stand apart in the source and are kept apart here.

Assays:
soybean LOX-1 [1] = target: T1, soybean LOX-1 (Glycine max, UniProt P08170); assay: Soybean LOX-1 enzyme inhibitory assessment (DMAB-MBTH colour assay, linoleic acid substrate); type: biochemical; conditions: from sigmoidal dose-response curves, n = 3; read-out: IC50, soybean LOX-1 inhibition
T1 construct: purchased Sigma-Aldrich
T1 sequence (P08170 1-839): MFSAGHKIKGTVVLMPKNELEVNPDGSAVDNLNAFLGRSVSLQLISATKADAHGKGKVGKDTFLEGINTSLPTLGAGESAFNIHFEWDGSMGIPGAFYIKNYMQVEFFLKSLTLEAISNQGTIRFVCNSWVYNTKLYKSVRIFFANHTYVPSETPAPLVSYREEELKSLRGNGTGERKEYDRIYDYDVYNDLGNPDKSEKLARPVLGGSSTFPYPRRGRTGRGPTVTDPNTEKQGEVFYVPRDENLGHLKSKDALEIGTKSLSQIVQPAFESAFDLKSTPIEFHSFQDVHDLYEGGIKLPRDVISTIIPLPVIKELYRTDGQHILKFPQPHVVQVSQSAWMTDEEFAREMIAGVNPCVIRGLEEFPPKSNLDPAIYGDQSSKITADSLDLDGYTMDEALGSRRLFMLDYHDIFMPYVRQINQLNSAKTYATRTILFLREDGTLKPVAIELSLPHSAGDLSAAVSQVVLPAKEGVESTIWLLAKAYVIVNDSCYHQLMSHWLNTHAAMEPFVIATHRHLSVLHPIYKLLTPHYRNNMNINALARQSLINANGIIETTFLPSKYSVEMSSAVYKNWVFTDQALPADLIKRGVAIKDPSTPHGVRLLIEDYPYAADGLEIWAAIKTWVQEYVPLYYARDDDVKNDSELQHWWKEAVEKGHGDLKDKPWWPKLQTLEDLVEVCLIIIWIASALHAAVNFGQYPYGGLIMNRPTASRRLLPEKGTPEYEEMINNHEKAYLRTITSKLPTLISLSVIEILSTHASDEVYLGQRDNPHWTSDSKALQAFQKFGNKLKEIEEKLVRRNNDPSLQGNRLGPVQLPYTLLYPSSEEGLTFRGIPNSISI
Description: Linoleic acid and two assay solutions (A and B) were prepared in advance. Solution A was 50 mM 3-(dimethylamino)benzoic acid (DMAB) in l00 mM phosphate buffer (pH 7.0). Solution B was a mixture of l0 mM 3-methyl-2-benzothiazolinonehydrazone hydrochloride (MBTH; 3 ml), and hemoglobin (5 mg ml^−1, 3 ml) in 50 mM phosphate buffer at pH 5.0 (25 ml). A linoleic acid solution was prepared by mixing 5.6 mg linoleic acid with 0.5 ml methanol and then diluted with 100 mM KOH to a final volume of 5 ml (4 mM). In the assay, a solution of inhibitors in dimethyl sulfoxide (DMSO) (12.5 μl), soybean LOX-1 (4000 units ml^−1 in 50 mM phosphate buffer pH 7.0; 25 μl), and phosphate buffer, pH 7.0 (50 mM; 435 μl) were mixed in 48-well plates, and pre incubation was carried out for 10 min at 30 °C. A control test was performed with the same volume of DMSO. After the pre incubation, linoleic acid solution (25 μl) was added to start the peroxidation reaction at 30 °C, and 10 min later, solution A (135 μl) and then solution B (65 μl) were added to start the color formation. After 3 min, 100 μl of a 2% sodium dodecyl sulphate (SDS) solution was added to terminate the reaction. The absorbance at 598 nm was compared with the control. These experiments were performed in triplicate and the data were analyzed using GraphPad Prism 6.0 (San Diego, USA).
Lipoxygenase inhibitory activity of 4-MMPB and its analogs was assessed on soybean LOX-1 and the inhibitory potencies (IC50 values) of the mentioned compounds were calculated from their sigmoidal dose–response curves (Fig. 2).

PC-3 cells [2] = assay: Flow cytometric analysis of cell death (Annexin V-FITC/PI) in PC-3 cells; type: cell-based, human; conditions: for change of Q2 (Annexin V positive/PI positive) population after co-treatment with deferoxamine: PC-3, compared with compound only; for percentage of early and late apoptotic/ferroptotic cells (Q3+Q2): PC-3, treated with IC50 value of the compound, 24 h, control 0.133%
Description: To determine the mechanism of cell death induced by 4-MMPB analogs, flow cytometry was employed using the Annexin V-FITC kit with PI (BioLegend, San Diego, USA) according to the manufacturer’s instructions. We performed co-treatment experiments with the compounds and a ferroptosis inhibitor (IC50 values of 4-PMPB + , 4-EMPB + , and 4-MMPB + deferoxamine (80 µM)) on PC-3 cells, to distinguish between ferroptosis and apoptosis mechanisms. […] Then the cells were collected by trypsinization (0.25% trypsin-1 mM EDTA), washed twice with PBS, followed by centrifugation, and resuspended in a binding buffer. Samples were stained with Annexin V-FITC/ PI followed by 15 min incubation at room temperature. Finally, cells were subjected to flow cytometry (BD Accuri C6, San Jose, USA) and the data were analyzed by FlowJo 7.6.1 software (Ashland, USA). Moreover, PC-3 cells treated with 0.3 N HCl were used as a control to eliminate the effects of solvent.

HDF cells = assay: MTT cytotoxicity assay on HDF normal cells; type: cell-based, human
Description: (§1) Two mg of each compound was dissolved in 100 μl hydrochloric acid (HCl 0.3 N) to make a primary stock solution. Different concentrations (1.56–50 μg ml^−1) were then prepared by serial dilution from the primary stock solution and further diluted in the culture medium.
(§2) PC-3 cells were obtained from Pasteur Institute (Tehran, Iran) and routinely cultured in RPMI 1640 supplemented with 10% FBS. In order to investigate the toxicity of the compounds on normal cells, in vitro experiments were also performed on HDF cells. These cells were kindly provided by Academic Center for Education, Culture and Research (ACECR, Mashhad, Iran) and grown in DMEM supplemented with 10% FBS. Both cell lines were kept at 37 °C containing 5% CO2 in a humidified incubator.
(§3) The MTT reduction assay is a standard quantitative method to evaluate cytotoxicity. This assay measures cellular dehydrogenases, and is considered as an easy, safe and highly reproducible method. Viable cells reduce yellow tetrazolium salt to purple formazan crystals and thus the color change serves as a marker reflecting cell viability.
(§4) PC-3 and HDF cells were seeded in 96-well plates (NEST, China) at a density of 6000 and 8000 cells per well, respectively and incubated at 37 °C with 5% CO2. […] After 24, 48 and 72 h of treatments, 20 μl MTT solution (5 mg ml^−1 in PBS; phosphate buffered saline) was added to each well, and cells were incubated in the dark for 3–4 h. The media were then removed and purple crystals were dissolved in 160 μl DMSO. The absorbance in each well was measured at 540 nm as reference wavelength in an enzyme-linked immunosorbent assay (ELISA) reader (Awareness Technology, USA) and relative optical density (OD) values were recorded. The percentage of viable cells was calculated using the following equation [49]: Cell viability%=100×ODmeanof treated cells-ODmeanblank/ODmeanof negative control cellsHCl0.3 N-ODmeanblank.

PC-3 cells [3] = assay: MTT cytotoxicity assay on PC-3 cells; type: cell-based, human; conditions: PC-3, MTT
Description: as §1, §2, §3, §4

[4] = In vivo side effects evaluation (body weight, serum biochemistry, H&E histology); set-up: species or system C57BL/6 mice; conditions: for serum AST and ALT levels: 50 mg kg^-1, compared with immunosuppressed control group; for histological analysis of major organs (liver, kidney, spleen): H&E, day 15 after treatments
PC-3 tumors = assay: Anti-tumor effect in PC-3 xenograft tumor model in immunocompromised C57BL/6 mice
15-lipoxygenase = target: 15-lipoxygenase; set-up: method as in PMID 17210254; conditions: read-out: IC50, 15-lipoxygenase inhibition; cited from earlier work
soybean LOX-1 [5] = target: T1, soybean LOX-1; set-up: method as in doi:10.1007/s00044-013-0506-7; conditions: read-out: IC50 against soybean LOX-1; cited from earlier work
15-LOX-1 = conditions: read-out: IC50 against 15-LOX-1; cited from earlier work
[6] = 10 and 50 mg kg^-1, 15 days follow up
[7] = high dose 50 mg kg^-1, 15 days, vs PBS and 0.3 N HCl controls
[8] = 24 h, read-out: IC50 (µM) ± SD (HDF) 24 h
[9] = 48 h, read-out: IC50 (µM) ± SD (HDF) 48 h
[10] = 72 h, read-out: IC50 (µM) ± SD (HDF) 72 h
[11] = 24 h, read-out: IC50 (µM) ± SD (PC-3) 24 h
[12] = 48 h, read-out: IC50 (µM) ± SD (PC-3) 48 h
[13] = 72 h, read-out: IC50 (µM) ± SD (PC-3) 72 h

In the case of CCc1nc(N2CCN(C)CC2)nc2c1Nc1ccccc1S2 [4-EMPB, 4-Ethyl-2-(4-methylpiperazinyl)pyrimido[4,5-b]benzothiazine], the IC50 (soybean LOX-1 [1]) is reported as 14.3 µM, the “change of Q2 (Annexin V positive/PI positive) population after co-treatment with deferoxamine” value (“change of Q2” below) (PC-3 cells [2]) is reported as “markedly decreased” and the “percentage of early and late apoptotic/ferroptotic cells (Q3+Q2)” value (PC-3 cells [2]) is reported as 60.9%. The “cytotoxicity on normal (HDF) cells, in words” value (from here on “cytotoxicity on normal”) (HDF cells) was “weak cytotoxicity”, the IC50 (HDF cells; Homo sapiens, 24 h, read-out: IC50 (µM) ± SD (HDF) 24 h) was 545.5 ± 1.99 µM and the IC50 (HDF cells; Homo sapiens, 48 h, read-out: IC50 (µM) ± SD (HDF) 48 h) was 361.7 ± 2.29 µM. It also gave an IC50 (HDF cells; Homo sapiens, 72 h, read-out: IC50 (µM) ± SD (HDF) 72 h) of 258.9 ± 1.86 µM, an IC50 (PC-3 cells [3]; Homo sapiens, 24 h, read-out: IC50 (µM) ± SD (PC-3) 24 h) of 107 ± 6.17 µM and an IC50 (PC-3 cells [3]; Homo sapiens, 48 h, read-out: IC50 (µM) ± SD (PC-3) 48 h) of 75 ± 3.39 µM. For the same compound, the IC50 (PC-3 cells [3]; Homo sapiens, 72 h, read-out: IC50 (µM) ± SD (PC-3) 72 h) was 49 ± 6.76 µM, the “serum AST and ALT levels” value [4] was “significantly elevated” and the body weight [4, 6] was “no significant changes”. The “histological analysis of major organs (liver, kidney, spleen)” value (shortened to “histological analysis of major organs”) [4] was “no obvious tissue damages” and the tumor growth (PC-3 tumors; [7]) was “effectively inhibited”.
In the case of Cc1nc(N2CCN(C)CC2)nc2c1Sc1ccccc1N2 [4-MMPB, 4-Methyl-2-(4-methylpiperazinyl)pyrimido[4,5-b]benzothiazine], the IC50 (soybean LOX-1 [1]) is reported as 17.1 µM, the “change of Q2” value (PC-3 cells [2]) is reported as “markedly decreased” and the “percentage of early and late apoptotic/ferroptotic cells (Q3+Q2)” value (PC-3 cells [2]) is reported as 41.5%. For the same compound, the “cytotoxicity on normal” value (HDF cells) was “weak cytotoxicity”, the IC50 (HDF cells; [8]) was 331 ± 3.33 µM and the IC50 (HDF cells; [9]) was 284 ± 2.98 µM. For the same compound, the IC50 (HDF cells; [10]) was 186 ± 2.81 µM, the IC50 (15-lipoxygenase) was 18 µM and the IC50 (PC-3 cells [3]; [11]) was 101 ± 2.41 µM. The IC50 (PC-3 cells [3]; [12]) was 55.6 ± 1.98 µM, the IC50 (PC-3 cells [3]; [13]) was 40.8 ± 1.79 µM and the “serum AST and ALT levels” value [4] was “significantly elevated”. The body weight [4, 6] was “no significant changes”, the “histological analysis of major organs” value [4] was “no obvious tissue damages” and the tumor growth (PC-3 tumors; [7]) was “effectively inhibited”.
In the case of CCCc1nc(N2CCN(C)CC2)nc2c1Sc1ccccc1N2 [4-PMPB, 4-propyl-2-(4-methylpiperazinyl)pyrimido[4,5-b]benzothiazine], the IC50 (soybean LOX-1 [1]) is reported as 8.6 µM, the “change of Q2” value (PC-3 cells [2]) is reported as “markedly decreased” and the “percentage of early and late apoptotic/ferroptotic cells (Q3+Q2)” value (PC-3 cells [2]) is reported as 52.38%. The IC50 (soybean LOX-1 [5]) was 9 µM, the “cytotoxicity on normal” value (HDF cells) was “no obvious cytotoxicity” and the IC50 (HDF cells; [8]) was 1641.1 ± 0.075 µM. The IC50 (HDF cells; [9]) was 1443.7 ± 0.055 µM, the IC50 (HDF cells; [10]) was 1028.9 ± 0.139 µM and the IC50 (PC-3 cells [3]; [11]) was 122 ± 2.62 µM. The IC50 (PC-3 cells [3]; [12]) was 88.5 ± 2.31 µM, the IC50 (PC-3 cells [3]; [13]) was 57.6 ± 2.12 µM and the “serum AST and ALT levels” value [4] was “significantly elevated”. For the same compound, the body weight [4, 6] was “no significant changes”, the “histological analysis of major organs” value [4] was “no obvious tissue damages” and the tumor growth (PC-3 tumors; [7]) was “effectively inhibited”.
For CC(C)=CCCC(C)=CCCC(C)=CCOc1cccc2oc(=O)ccc12 [5-farnesyloxycoumarin], the IC50 (15-LOX-1) is given as 8.32 µM.
With N.N.[Cl][Pt][Cl] [Cisplatin, cisplatin, reference compound] the “percentage of early and late apoptotic/ferroptotic cells (Q3+Q2)” value (PC-3 cells [2]) was 67.8%, the IC50 (HDF cells; [8]) was 153 ± 2.89 µM and the IC50 (HDF cells; [9]) was 119 ± 2.56 µM. The IC50 (HDF cells; [10]) was 71.1 ± 3.34 µM, the IC50 (PC-3 cells [3]; [11]) was 62.3 ± 1.74 µM and the IC50 (PC-3 cells [3]; [12]) was 51.5 ± 1.43 µM. For the same compound, the IC50 (PC-3 cells [3]; [13]) was 41.6 ± 1.11 µM, the “histological analysis of major organs” value [4] was “mild and local accumulation of inflammatory cells” and the serum liver enzymes ([4]; cisplatin 2 mg kg^-1, compared to control group, p < 0.0001) was “significantly increased”. The body weight ([4]; cisplatin 2 mg kg^-1, day 15, p < 0.01 vs other experimental groups) was “lowest body weights” and the tumor growth (PC-3 tumors; cisplatin 2 mg kg^-1, 15 days, vs controls and lower-dose groups) was “significant decrease”.
